In article PMC3715890, “A Cyclic Peptide Inhibitor of HIF-1 Heterodimerization That Inhibits Hypoxia Signaling in Cancer Cells” (Journal of the American Chemical Society, 2013):
Entries after “also recorded” stand apart in the source; their conditions may differ.

Columns and labels:
[1] = tested on: CAIX mRNA in hypoxic MCF-7 cells; test: CAIX mRNA qPCR, MCF-7; assay type: cell-based; conditions: MCF-7, hypoxia, 100 μM
Description: Cells were treated with the stated concentrations of inhibitor (P1, P2, or P3) and incubated in normoxia for 4 h, followed by incubation in a hypoxic environment. All manipulation of cell pellets (e.g., lysis, mRNA, and protein extraction) was conducted in a hypoxic environment.
Total RNA was extracted from MCF-7 and U2OS cells using RNeasy Mini Kit (74104, QIAGEN) and quantified using a Nanodrop ND-1000 spectrophotometer. Complementary DNA was synthesized in a 20 μL reaction containing 1 μg of total RNA, using qScript cDNA SuperMix (95048-100, Quanta Biosciences) according to the manufacturer’s instructions. Quantitative real-time PCRs were performed using Universal Taqman PCR master mix (Applied Biosystems) >and the Taqman gene expression assay of interest (Applied Biosystems) on an ABI StepOnePlus Real-Time PCR system (Applied Biosystems). Expression assays used in this study were HIF-1α (00936376_m1), VEGF-A (Hs00173626_m1), CAIX (Hs00154208_m1), LOX (Hs00942480_m1), HIF2α (Hs01026149_m1), CITED2 (Hs01897804_s1), and 18S (Hs99999901_m1). All expression values were normalized using expression of 18S.

[2] = biological target: T1, His-HIF-1α1–350 with GST-HIF-1β1–474 (Homo sapiens, UniProt Q16665); test: ELISA of HIF-1 dimerization; assay type: biochemical; conditions: pH 7.5, 30 min preincubation, room temperature
T1 construct: heterodimerization of His-HIF-1α1–350 with GST-HIF-1β1–474 analyzed by ELISA; made in house; host or cells: E. coli BL21(DE3)
Source text: We next probed the effect of cyclo-CLLFVY on the interaction of HIF-1α with HIF-1β in vitro. […] Unfortunately, the positively charged Tat-tag of P1 is incompatible with EMSA (interferes with the bandshift of DNA). […] To determine the HIF-1-specificity of cyclo-CLLFVY, we assessed its ability to disrupt HIF-2 dimerization by ELISA. Recombinant His-HIF-2α1–351 was produced and purified, and shown to form functional heterodimers with GST-HIF-1β1–474 by EMSA (Figure S5B).
HIF-1β1-474, *please note that isoform 3 of HIF-1β was used). The standard protocol for protein expression was followed. Briefly, a 1 % culture in LB was incubated at 37 °C with shaking until OD600 of 0.6 was reached. 0.1 mM IPTG was added and the liquid culture incubated with shaking at 18 °C overnight. Cell pellets were suspended in MHW buffer9 (approximately 4 ml buffer per 1 g cell pellet). Lysozyme (100 µg/ml) was added to the lysate and the solution was incubated with shaking for 20 min at 5 °C. […]
glycerol) was added to individual wells of a Pierce Ni2+-coated 96-well plate (Thermo Scientific, catalogue no. […] The stated quantity of inhibitor (P1 or P2) was added as a solution in 100 µL of buffer to the desired wells, and the plate incubated at room temperature for 30 minutes. […]

For “Tat-cyclo-CRLMVL (head to tail) [P2, cyclo-CRLMVL tagged with Tat peptide via a disulfide bond; used as negative control]”, the “CAIX mRNA” value [1] was “no effect” and the “effect on HIF-1 dimerization” value [2] was “does not disrupt HIF-1 dimerization; also recorded: had no effect on HIF-1 dimerization”.
